Data on one molecule can be found in patent publication US11324720B2, “Antiproliferative DNA polymerase inhibitor” (NEW YORK MEDICAL COLLEGE, priority 2018, dated 2022).

One data set deals with BxPC-3 cells. Put plainly: Cell proliferation assay, MTT method. Type of data set: cell-based, human. An excerpt: (§1) DNA replication precedes cell division. Thus, cancer cells cannot divide and proliferate without successful chromosomal duplication. A DNA polymerase inhibitor should inhibit cancer cell proliferation. We characterized the antiproliferative properties of zelpolib on a number of cell lines originated from pancreatic cancer (BxPC-3) and breast cancer (MCF7 for ER+ breast cancer). In addition, we developed a cisplatin resistant subline of a pancreatic cancer cell line, R-BxPC3 for our studies as well. We used the MTT method^25 for analyzing cell proliferation. This assay is based on the reduction of 3-(4,5-dimethylthiazol-2-yl)-2,5-diphenyltetrazolium bromide by live cells to an insoluble formazon, which were subsequently dissolved in DMSO and quantified by UV absorbance. Therefore, the cell number is proportional to the optical density in the established linear region. […] The plateau phenomena indicate inhibition of proliferation without cell killing, similar to these observed from hydroxyurea^26, aphidicolin^27, and to a certain extent, methotrexate treatments^28. Direct inhibition of DNA polymerase activity provides a unique mechanism that is not employed by any of the current cancer therapeutics. We selected a number of most widely prescribed chemotherapeutics with distinct mechanisms to compare their antiproliferative potential in the 2 cancer cell lines. We included alkylating agent cisplatin, antimetabolites methotrexate and 5-flourouracil (5FU)^29-31. […] Whereas the comparison with cisplatin is biphasic.
(§2) Human cancer cells (5×10^3-7.5×10^3) were initially seeded in 96-well plates (Cellstar) containing 0.2 ml media per well. After 24 hrs, these cells were treated with variable concentrations drug combinations for 48-72 hrs. Subsequently, 4,5-dimethylthiazol-2-yl-2,5-diphenyltetrazolium bromide (MTT) (20 μl of 5 mg/ml) was added to each well for 3 hrs. Formazan crystals were then dissolved in 150 μl DMSO and optical density was read at 490 nm^25. All experiments were performed in triplicates. Results were analyzed by GraphPad Prism. Data represent mean value±SEM for each concentration of inhibitor combinations.
Background: Tetrazolium dyes change colour on reduction, which living cells bring about.

Another data set deals with MCF7 cells. The data set is described as follows: Cell proliferation assay, MTT method. In kind it is cell-based, human.
Excerpt: as §1, §2

Data set [1] concerns the target T1, Pol δ (Homo sapiens, UniProt P28340).
T1 construct: made in house; host or cells: insect cells (Pol δ); E. coli (PCNA)
Put plainly: primer extension assay (25 mer primer/40 mer template). In kind it is biochemical. The conditions noted are these: 20 μM inhibitor. An excerpt: Next, we investigated the inhibitory properties of zelpolib in a primer extension assay^17,18 with a template that consists of all four deoxynucleotide that is more reflective of cellular DNA replication processes than the pold(A) template. The substrate consisted of a 25 mer primer hybridized to a 40 mer template. In the presence of PCNA and dNTPs, the primers were extended upon addition of Pol δ and a full extension would generate a 40 mer copy of the template. The primers were labeled at the 5′-end with ^32P, and the products were separated on a sequencing gel for visualization and quantification. […] The idea originated from the fact that most kinase inhibitors compete for binding with ATP. It is conceivable that they might compete with dATP for binding to polymerases. We randomly selected 10 small-molecule-cancer drugs with nine being kinase inhibitors^19 and one parp inhibitor (olaparib)^20. […] In the presence of any other inhibitors, at least 30% of the primers were extended.
Recombinant Pol […] were expressed in insect cells and purified as reported previously^18. […]
Briefly, the standard reaction mixture contained 5 μM dNTP, 5 mM MgCl2, 50 mM Tris-HCl (pH 7.5), 2 mM dithiothreitol, […] BSA, 50 mM NaCl, 20 nM primer/template, 50 nM PCNA, 10 nM Pol δ and variable concentrations of inhibitors. […] Products was visualized on phosphorimager and quantitated using Image-J software. […]

The target of data set [2] is T1, Pol δ. Put plainly: single nucleotide primer extension (incorporation) assay. Type of data set: biochemical. The conditions noted are these: single dNTP present. How it is done:
In our in silico screening, the active site cavity was created by the removal of dCTP in the original crystal structure. […] Therefore, we assayed the inhibition patterns of 4 individual dNTP molecules in a single nucleotide incorporation assays. In this assay, only one nucleotide is present for the primer extension for the next appropriate base paring to the template.
Briefly, the standard reaction mixture contained 5 μM dNTP, 5 mM MgCl2, 50 mM Tris-HCl (pH 7.5), 2 mM dithiothreitol, […] BSA, 50 mM NaCl, 20 nM primer/template, 50 nM PCNA, 10 nM Pol δ and variable concentrations of inhibitors. The reactions were initiated by addition of dNTPs and MgCl2. Reaction was allowed to proceed at 25° C. for 2 min before addition of stop buffer (95% formamide/25 mM EDTA). The products were separated on a 20% polyacrylamide gels urea. Products was visualized on phosphorimager and quantitated using Image-J software. For single nucleotide primer extension assay^18, the protocol is identical to primer extension assay except a single dNTP is used.

T1 sequence (P28340 whole entry): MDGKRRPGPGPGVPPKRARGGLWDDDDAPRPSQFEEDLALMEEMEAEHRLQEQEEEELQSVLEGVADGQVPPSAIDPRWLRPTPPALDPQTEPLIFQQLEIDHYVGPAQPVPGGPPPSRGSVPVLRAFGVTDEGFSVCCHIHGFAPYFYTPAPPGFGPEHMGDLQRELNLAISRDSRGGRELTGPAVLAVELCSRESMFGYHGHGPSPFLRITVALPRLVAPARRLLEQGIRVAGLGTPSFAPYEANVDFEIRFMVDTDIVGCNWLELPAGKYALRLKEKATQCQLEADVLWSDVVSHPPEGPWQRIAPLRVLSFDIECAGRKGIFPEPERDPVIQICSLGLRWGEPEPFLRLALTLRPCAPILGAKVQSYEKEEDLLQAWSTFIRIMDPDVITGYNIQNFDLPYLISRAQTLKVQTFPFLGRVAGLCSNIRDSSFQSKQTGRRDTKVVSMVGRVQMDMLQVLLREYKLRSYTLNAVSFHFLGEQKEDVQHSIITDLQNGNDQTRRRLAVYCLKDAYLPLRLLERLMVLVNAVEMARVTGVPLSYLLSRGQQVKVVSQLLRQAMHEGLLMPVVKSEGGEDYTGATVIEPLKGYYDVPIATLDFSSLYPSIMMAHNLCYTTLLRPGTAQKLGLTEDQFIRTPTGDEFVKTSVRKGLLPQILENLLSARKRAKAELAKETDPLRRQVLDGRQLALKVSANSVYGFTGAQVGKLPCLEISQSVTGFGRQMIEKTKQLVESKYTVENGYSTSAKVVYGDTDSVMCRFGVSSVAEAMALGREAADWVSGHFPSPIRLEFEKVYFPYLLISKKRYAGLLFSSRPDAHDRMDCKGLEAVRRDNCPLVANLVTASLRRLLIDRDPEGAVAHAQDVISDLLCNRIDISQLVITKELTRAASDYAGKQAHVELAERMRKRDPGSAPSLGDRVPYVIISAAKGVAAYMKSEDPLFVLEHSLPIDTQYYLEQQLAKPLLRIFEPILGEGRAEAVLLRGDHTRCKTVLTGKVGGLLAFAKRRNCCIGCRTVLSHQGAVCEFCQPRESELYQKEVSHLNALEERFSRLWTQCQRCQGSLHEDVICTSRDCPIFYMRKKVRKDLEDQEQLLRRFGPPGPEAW
T1 sequence (P49005 whole entry partner): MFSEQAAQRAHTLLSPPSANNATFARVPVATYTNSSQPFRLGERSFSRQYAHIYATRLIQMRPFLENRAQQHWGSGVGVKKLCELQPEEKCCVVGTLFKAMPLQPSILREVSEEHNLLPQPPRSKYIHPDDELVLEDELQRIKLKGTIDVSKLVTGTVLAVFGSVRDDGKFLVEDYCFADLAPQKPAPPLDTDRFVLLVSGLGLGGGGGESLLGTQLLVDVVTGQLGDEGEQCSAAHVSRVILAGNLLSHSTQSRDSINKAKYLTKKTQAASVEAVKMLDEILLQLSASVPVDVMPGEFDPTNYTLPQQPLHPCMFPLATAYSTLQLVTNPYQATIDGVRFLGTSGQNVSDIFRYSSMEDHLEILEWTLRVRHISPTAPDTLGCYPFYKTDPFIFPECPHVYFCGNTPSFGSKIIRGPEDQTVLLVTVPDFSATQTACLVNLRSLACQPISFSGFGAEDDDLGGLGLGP
T1 sequence (Q15054 whole entry partner): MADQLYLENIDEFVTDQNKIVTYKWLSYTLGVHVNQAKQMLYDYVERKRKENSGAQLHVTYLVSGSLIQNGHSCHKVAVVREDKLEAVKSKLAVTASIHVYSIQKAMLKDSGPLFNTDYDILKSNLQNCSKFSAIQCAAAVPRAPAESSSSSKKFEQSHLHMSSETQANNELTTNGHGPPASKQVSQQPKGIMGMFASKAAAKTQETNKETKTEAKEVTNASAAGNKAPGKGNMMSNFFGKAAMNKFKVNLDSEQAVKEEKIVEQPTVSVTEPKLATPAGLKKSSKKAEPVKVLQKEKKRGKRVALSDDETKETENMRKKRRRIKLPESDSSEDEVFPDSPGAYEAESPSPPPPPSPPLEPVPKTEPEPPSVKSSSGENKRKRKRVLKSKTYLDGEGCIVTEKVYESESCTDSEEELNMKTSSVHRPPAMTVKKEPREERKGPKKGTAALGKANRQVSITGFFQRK
T1 sequence (P12004 whole entry partner): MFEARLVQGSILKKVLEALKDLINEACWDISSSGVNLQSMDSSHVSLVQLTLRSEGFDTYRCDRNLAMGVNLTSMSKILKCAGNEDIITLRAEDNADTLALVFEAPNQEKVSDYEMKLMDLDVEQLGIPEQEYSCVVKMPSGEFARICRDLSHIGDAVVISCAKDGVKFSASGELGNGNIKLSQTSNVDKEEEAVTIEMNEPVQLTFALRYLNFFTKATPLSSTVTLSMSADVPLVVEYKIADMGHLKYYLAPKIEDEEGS

In the case of `COC(=O)c1cc(-c2ccccc2)sc1NC(=S)NNC(=O)CCc1ccc(O)c(O)c1` [zelpolib], in the data set with BxPC-3 cells (BxPC-3, MTT), the “antiproliferative activity compared with cisplatin” value was “superior to cisplatin up to 10 μM”; the “antiproliferative activity compared with methotrexate and 5-FU” value was “superior to methotrexate and 5-FU at all concentrations”; the “concentration at which antiproliferative effect reaches a plateau” value is “about 5 μM”. Moreover, the cytotoxicity entry in the data set on BxPC-3 cells (zelpolib alone, cell lines not specified) was “minimal cell cytotoxicity”. In the data set on MCF7 cells, the “concentration at which antiproliferative effect reaches a plateau” value is “about 5 μM”. Moreover, in the data set on MCF7 cells (72 h), the “antiproliferative activity compared with methotrexate and 5-FU” value is “superior to methotrexate and 5-FU across the concentration range”; the “antiproliferative activity, zelpolib versus cisplatin” value is “at least as effective as cisplatin in inhibiting MCF7 cell growth up to 5 μM”. For the same molecule, on Pol δ [1], the “full-length product (40 mer) formed” value is recorded as “barely detectible” and the primer unextended was found to be 94%. Moreover, the “inhibition of incorporation of individual dNTPs (dATP, dGTP, dCTP, dTTP)” value against Pol δ [2] is “inhibited the incorporation of all four nucleotides to similar extents in a noncompetitive manner”.
